Key:
Format in all cases: in vivo
[1] = test system: Erigeron canadensis (ERICA); assay: Post-emergence application in field trials, ERICA; conditions: 22 DAT; water volume 200 l/ha; growth stage 15-20; 25 g ai/ha
Experimental: (§1) In the examples below, using the method of S. R. Colby (1967) “Calculating synergistic and antagonistic responses of herbicide combinations”, Weeds 15, p. 22ff., the value E, which is expected if the activity of the individual active compounds is only additive, was calculated: E=X+Y−(X·Y/100) • where • X=percent activity using active herbicide A at an application rate a; • Y=percent activity using active trifludimoxazin at an application rate b; • E=expected activity (in %) by A+B at application rates a+b.
(§2) If the value found experimentally is higher than the value E calculated according to Colby, a synergistic effect is present.
(§3) On field test sites, natural weed infestation or seeded weeds were treated post-emergence of the weeds.
(§4) In the field trials, the weedy plants were treated as indicated below.
(§5) Herbicide A-1 (342 g/I), trifludimoxazin (500 g/I) and saflufenacil (342 g/I) were, together with addition of 1% MSO (methylated seed oil) as adjuvant (unless indicated otherwise), formulated in water as distribution medium as indicated and sprayed with commercial flat fan nozzles.
In the following experiments, the herbicidal activity for the individual herbicidal compositions (solo and mixture applications) was assessed at the indicated days after treatment (DAT). […]

[2] = test system: Abutilon theophrasti (ABUTH); assay: Post-emergence application in greenhouse trials, ABUTH
Experimental: as §1, §2
(§6) The culture containers used were plastic pots containing loamy sand with approximately 3.0% of humus as substrate. The seeds of the test plants were sown separately for each species.
(§7) For the post-emergence treatment, the test plants were grown to a plant height of from 3 to 15 cm, depending on the plant habit, and only then treated with the active compounds which had been suspended or emulsified in water. To this end, the test plants were either sown directly, and grown in the same containers, or they were first grown separately as seedlings and transplanted into the test containers a few days prior to treatment.
(§8) Depending on the species, the plants were kept at 10-25° C. and 20-35° C., respectively.
(§9) The test period extended over 2 to 4 weeks. During this time, the plants were tended and their response to the individual treatments was evaluated.
(§10) Evaluation was carried out using a scale from 0 to 100. 100 means no emergence of the plants, or complete destruction of at least the above-ground parts, and 0 means no damage or normal course of growth. A good herbicidal activity is given at values of at least 70, and very good herbicidal activity is given at values of at least 85.
(§11) In the greenhouse trials, unless indicated otherwise, herbicide A, trifludimoxazin and saflufenacil were formulated (50 g/I) and applied with addition of 1% MSO (methylated seed oil) as adjuvant. The solvent used was water (200 I/ha).

[3] = test system: Lolium multiflorum (LOLMU); assay: Post-emergence application in greenhouse trials, LOLMU; conditions: 20 DAT
Experimental: as §1, §2, §6, §7, §8, §9, §10, §11

[4] = test system: Sorghum halapense (SORHA); assay: Post-emergence application in greenhouse trials, SORHA
Experimental: as §1, §2, §6, §7, §8, §9, §10, §11

[5] = test system: Spermacoce latifolia (BOIFL); assay: Post-emergence application in field trials, BOIFL; conditions: 8 DAT, water volume 200 l/ha, growth stage 12-16, height 3-10 cm
Experimental: as §1, §2, §3, §4, §5
(§12) In the following experiments, the herbicidal activity for the individual herbicidal compositions (solo and mixture applications) was assessed at the indicated days after treatment (DAT). The assessments for the damage on undesired weeds caused by the composition was carried out using a scale from 0 to 100%, compared to the untreated control plants. Here, 0 means no damage and 100 means complete destruction of the plants.
(§13) Herbicide A-1 (100 g/l) and trifludimoxazin (500 g/l) were, together with addition of 1% MSO (methylated seed oil) as adjuvant (unless indicated otherwise), formulated in water as distribution medium as indicated and sprayed with commercial flat fan nozzles.

[6] = test system: Echinocloa crus-galli (ECHCG); assay: Post-emergence application in greenhouse trials, ECHCG; conditions: GS 13
Experimental: as §1, §2, §6, §7, §8, §9, §10, §11

Hordeum vulgare (HORVS) = assay: Post-emergence application in field trials, HORVS; conditions: water volume 100 l/ha, pre plant burndown, 18 g ai/ha
Experimental: as §1, §2, §3, §4, §5, §12, §13

Setaria faberi (SETFA) = assay: Post-emergence application in greenhouse trials, SETFA; conditions: GS 13
Experimental: as §1, §2, §6, §7, §8, §9, §10, §11

Avena fatua (AVEFA) = assay: Post-emergence application in field trials, AVEFA; conditions: 29 DAT; water volume 100 l/ha; pre plant burndown; growth stage 14-23; height 24-40 cm; 18 g ai/ha
Experimental: as §1, §2, §3, §4, §5, §12, §13

[7] = test system: Brachiaria decumbens (BRADC); assay: Post-emergence application in greenhouse trials, BRADC; conditions: GS 13
Experimental: as §1, §2, §6, §7, §8, §9, §10, §11

[8] = 20 DAT, growth stage 33, 0.2 g ai/ha
[9] = 20 DAT, growth stage 14, 0.3 g ai/ha
[10] = 28 DAT, growth stage 21-24, height 15-37 cm
[11] = 29 DAT, growth stage 15-24, height 25-45 cm

**Q.** Which “% Herbicidal activity” value [1] does the source give for `CCOC(=O)COc1ccccc1Oc1nc(-n2c(=O)cc(C(F)(F)F)n(C)c2=O)c(F)cc1Cl` [A-1, ethyl 2-[2-[[3-chloro-5-fluoro-6-[3-methyl-2,6-dioxo-4-(trifluoromethyl)pyrimidin-1-yl]-2-pyridyl]oxy]phenoxy]acetate] here?
**A.** Its value is 70%.

**Q.** What about the “% Herbicidal activity” value ([2]; 6 DAT, GS 33, A-1 0.2 g ai/ha) of the same compound?
**A.** The value was 65%.

**Q.** And the “% Herbicidal activity” value ([2]; 6 DAT, GS 33, A-1 0.3 g ai/ha)?
**A.** The value was 65%.

**Q.** What about the “% Herbicidal activity” value ([2]; 6 DAT, GS 33, A-1 0.8 g ai/ha) of the same compound?
**A.** Its value is 85%.

**Q.** And the “% Herbicidal activity” value ([2]; 20 DAT, GS 33, A-1 0.2 g ai/ha)?
**A.** Its value is 15%.

**Q.** What about the “% Herbicidal activity” value ([2]; 20 DAT, GS 33, A-1 0.3 g ai/ha) of the same compound?
**A.** The value was 15%.

**Q.** And the “% Herbicidal activity” value [2, 8]?
**A.** Its value is 15%.

**Q.** And the “% Herbicidal activity” value ([3]; GS 13, A-1 0.3 g ai/ha)?
**A.** Its value is 10%.

**Q.** And the “% Herbicidal activity” value ([3]; growth stage 13, 0.3 g ai/ha)?
**A.** The value was 10%.

**Q.** What about the “% Herbicidal activity” value ([4]; 7 DAT, B-1 formulated as 500 g/l, GS 14, A-1 2 g ai/ha) of the same compound?
**A.** Its value is 80%.

**Q.** And the “% Herbicidal activity” value ([4]; 20 DAT, B-1 formulated as 500 g/l, GS 14, A-1 2 g ai/ha)?
**A.** Its value is 60%.

**Q.** And the “% Herbicidal activity” value ([4]; 20 DAT, GS 14, A-1 0.2 g ai/ha)?
**A.** Its value is 10%.

**Q.** What about the “% Herbicidal activity” value ([4]; 20 DAT, GS 14, A-1 0.3 g ai/ha) of the same compound?
**A.** Its value is 10%.

**Q.** And the “% Herbicidal activity” value [4, 9]?
**A.** The value was 10%.

**Q.** What about the “% Herbicidal activity” value ([5]; 20 g ai/ha) of the same compound?
**A.** Its value is 75%.

**Q.** And the “% Herbicidal activity” value ([5]; 30 g ai/ha)?
**A.** Its value is 82%.

**Q.** And the “% Herbicidal activity” value ([6]; 7 DAT, A-1 0.4 g ai/ha)?
**A.** The value was 40%.

**Q.** And the “% Herbicidal activity” value ([6]; 20 DAT, A-1 0.2 g ai/ha)?
**A.** The value was 0%.

**Q.** And the “% Herbicidal activity” value (Hordeum vulgare (HORVS); [10])?
**A.** Its value is 89%.

**Q.** What about the “% Herbicidal activity” value (Hordeum vulgare (HORVS); [11]) of the same compound?
**A.** Its value is 73%.

**Q.** What about the “% Herbicidal activity” value (Setaria faberi (SETFA); 7 DAT, A-1 0.3 g ai/ha) of the same compound?
**A.** The value was 55%.

**Q.** What about the “% Herbicidal activity” value (Setaria faberi (SETFA); 7 DAT, A-1 0.5 g ai/ha) of the same compound?
**A.** The value was 80%.

**Q.** And the “% Herbicidal activity” value (Setaria faberi (SETFA); 20 DAT, A-1 0.3 g ai/ha)?
**A.** Its value is 80%.

**Q.** What about the “% Herbicidal activity” value (Avena fatua (AVEFA)) of the same compound?
**A.** Its value is 80%.

**Q.** And the “% Herbicidal activity” value ([7]; 7 DAT, B-1 formulated as 500 g/l, A-1 2 g ai/ha)?
**A.** Its value is 90%.

**Q.** And the “% Herbicidal activity” value ([7]; 7 DAT, A-1 0.4 g ai/ha)?
**A.** The value was 40%.

**Q.** And the “% Herbicidal activity” value ([7]; 7 DAT, A-1 0.8 g ai/ha)?
**A.** Its value is 50%.

**Q.** What about the “% Herbicidal activity” value ([7]; 7 DAT, A-1 0.9 g ai/ha) of the same compound?
**A.** The value was 60%.

**Q.** What about the “% Herbicidal activity” value ([7]; 7 DAT, A-1 1 g ai/ha) of the same compound?
**A.** Its value is 60%.

**Q.** What about the “% Herbicidal activity” value ([7]; 20 DAT, B-1 formulated as 500 g/l, A-1 2 g ai/ha) of the same compound?
**A.** The value was 90%.

**Q.** And the “% Herbicidal activity” value ([7]; 20 DAT, A-1 0.9 g ai/ha)?
**A.** Its value is 55%.

**Q.** Which results are given for `C#CCN1C(=O)C(F)(F)Oc2cc(F)c(-n3c(=O)n(C)c(=S)n(C)c3=O)cc21` [B-1, trifludimoxazin]?
**A.** % Herbicidal activity [1]: 27%; % Herbicidal activity ([2]; 6 DAT, GS 33, B-1 0.2 g ai/ha): 20%; % Herbicidal activity ([2]; 6 DAT, GS 33, B-1 0.3 g ai/ha): 20%; % Herbicidal activity ([2]; 6 DAT, GS 33, B-1 0.4 g ai/ha): 35%; % Herbicidal activity ([2]; 20 DAT, GS 33, B-1 0.3 g ai/ha): 0%; % Herbicidal activity [2, 8]: 0%; % Herbicidal activity ([3]; growth stage 13, 0.9 g ai/ha): 15%; % Herbicidal activity ([4]; 7 DAT, B-1 formulated as 500 g/l, GS 14, B-1 1 g ai/ha): 15%; % Herbicidal activity ([4]; 7 DAT, B-1 formulated as 500 g/l, GS 14, B-1 2 g ai/ha): 35%; % Herbicidal activity ([4]; 20 DAT, B-1 formulated as 500 g/l, GS 14, B-1 2 g ai/ha): 30%; % Herbicidal activity ([4]; 20 DAT, GS 14, B-1 0.9 g ai/ha): 65%; % Herbicidal activity ([4]; 20 DAT, GS 14, B-1 1.1 g ai/ha): 65%; % Herbicidal activity [4, 9]: 10%; % Herbicidal activity ([5]; 12.5 g ai/ha): 68%; % Herbicidal activity ([6]; 7 DAT, B-1 0.8 g ai/ha): 40%; % Herbicidal activity ([6]; 20 DAT, B-1 1.1 g ai/ha): 60%; % Herbicidal activity (Hordeum vulgare (HORVS); [10]): 0%; % Herbicidal activity (Hordeum vulgare (HORVS); [11]): 0%; % Herbicidal activity (Setaria faberi (SETFA); 7 DAT, B-1 0.9 g ai/ha): 45%; % Herbicidal activity (Setaria faberi (SETFA); 20 DAT, B-1 0.3 g ai/ha): 15%; % Herbicidal activity (Setaria faberi (SETFA); 20 DAT, B-1 0.9 g ai/ha): 70%; % Herbicidal activity (Avena fatua (AVEFA)): 0%; % Herbicidal activity ([7]; 7 DAT, B-1 formulated as 500 g/l, B-1 1 g ai/ha): 15%; % Herbicidal activity ([7]; 7 DAT, B-1 formulated as 500 g/l, B-1 2 g ai/ha): 15%; % Herbicidal activity ([7]; 7 DAT, B-1 0.2 g ai/ha): 10%; % Herbicidal activity ([7]; 7 DAT, B-1 0.3 g ai/ha): 10%; % Herbicidal activity ([7]; 7 DAT, B-1 0.4 g ai/ha): 10%; % Herbicidal activity ([7]; 7 DAT, B-1 0.8 g ai/ha): 45%; % Herbicidal activity ([7]; 20 DAT, B-1 formulated as 500 g/l, B-1 2 g ai/ha): 10%; % Herbicidal activity ([7]; 20 DAT, B-1 0.3 g ai/ha): 5%
